Data published in ChEMBL document CHEMBL5346923, “Novel pyridinium cationic pleuromutilin analogues overcoming bacterial multidrug resistance” (Eur J Med Chem, 2023).
In brackets after ≈: the same amount, converted by molar mass. Activity calls are given as the source filed them. The calls are words filed in the database; no cut-off is given here.

How the values were obtained:
[1] = tested on: Bacillus subtilis; assay: Antibacterial activity against Bacillus subtilis ATCC 6633 assessed as inhibition of bacterial growth measured after 24 hrs by MH broth based assay; assay type: functional
[2] = tested on: Proteus; assay: Antibacterial activity against Proteus CMCC (B) 49027 assessed as inhibition of bacterial growth measured after 24 hrs by MH broth based assay; assay type: functional
[3] = tested on: Escherichia coli; assay: Antibacterial activity against Escherichia coli MG1655 harbouring acrB gene assessed as inhibition of bacterial growth measured after 24 hrs by MH broth based assay; assay type: functional
[4] = tested on: Klebsiella pneumoniae; assay: Antibacterial activity against Klebsiella pneumonia CMCC (B) 46117 assessed as inhibition of bacterial growth measured after 24 hrs by MH broth based assay; assay type: functional
[5] = tested on: Escherichia coli; assay: Antibacterial activity against Escherichia coli ATCC 25922 assessed as inhibition of bacterial growth measured after 24 hrs by MH broth based assay; assay type: functional
[6] = tested on: Enterococcus; assay: Antibacterial activity against vancomycin-resistant Enterococcus ATCC 700221 assessed as inhibition of bacterial growth measured after 24 hrs by MH broth based assay; assay type: functional
[7] = tested on: Streptococcus pneumoniae; assay: Antibacterial activity against Streptococcus pneumoniae ATCC 49619 assessed as inhibition of bacterial growth measured after 24 hrs by MH broth based assay; assay type: functional
[8] = tested on: Staphylococcus aureus; assay: Antibacterial activity against methicillin-resistant Staphylococcus aureus ATCC 43300 assessed as inhibition of bacterial growth measured after 24 hrs by MH broth based assay; assay type: functional
[9] = tested on: Escherichia coli; assay: Antibacterial activity against Escherichia coli MG1655 assessed as inhibition of bacterial growth measured after 24 hrs by MH broth based assay; assay type: functional
[10] = tested on: Staphylococcus aureus; assay: Antibacterial activity against Staphylococcus aureus ATCC 29213 assessed as inhibition of bacterial growth measured after 24 hrs by MH broth based assay; assay type: functional
[11] = tested on: Staphylococcus epidermidis; assay: Antibacterial activity against methicillin-resistant Staphylococcus epidermidis ATCC 51625 assessed as inhibition of bacterial growth measured after 24 hrs by MH broth based assay; assay type: functional
[12] = tested on: Staphylococcus aureus; assay: Antibacterial activity against multi-drug resistant Staphylococcus aureus sa1 infected in BABL/C mouse assessed as neutrophil infiltration at 20 mg/kg, ip; assay type: functional, organism-based
[13] = tested on: Klebsiella pneumoniae; assay: Antibacterial activity against clinical isolate Klebsiella pneumoniae harbouring mcr-8 gene assessed as inhibition of bacterial growth measured after 24 hrs by MH broth based assay; assay type: functional
[14] = tested on: Staphylococcus aureus; assay: Antibacterial activity against multi-drug resistant Staphylococcus aureus sa1 infected in BABL/C mouse assessed as reduction in bacterial load in lungs at 40 mg/kg, ip measured after 2 days; assay type: functional; conditions: time 2 day
[15] = tested on: Staphylococcus aureus; assay: Antibacterial activity against clinical isolate Staphylococcus aureus harbouring ArlS, norA and MgrA gene assessed as inhibition of bacterial growth measured after 24 hrs by MH broth based assay; assay type: functional
[16] = tested on: Staphylococcus aureus; assay: Antibacterial activity against multi-drug resistant Staphylococcus aureus sa1 infected in BABL/C mouse assessed as survival rate at 40 mg/kg, ip measured upto 7 days; assay type: functional; conditions: sa1, 168 h, time <= 7 day
[17] = tested on: Staphylococcus aureus; assay: Antibacterial activity against clinical isolate multi-drug resistant Staphylococcus aureus sal assessed as reduction in log10 CFU at 6 times of MIC measured after 8 hrs by time-kill assay; assay type: functional
[18] = tested on: Staphylococcus aureus; assay: Antibacterial activity against clinical isolate Staphylococcus aureus harbouring tet38 gene assessed as inhibition of bacterial growth measured after 24 hrs by MH broth based assay; assay type: functional
[19] = tested on: Staphylococcus aureus; assay: Antibacterial activity against methicillin-resistant Staphylococcus aureus assessed as resistance development by measuring fold increase in MIC measured after 24 days; assay type: functional; conditions: time 24 day
[20] = tested on: Staphylococcus aureus; assay: Antibacterial activity against Staphylococcus aureus ATCC 29213 assessed as inhibition of bacterial division at 1 to 4 times of MIC by SEM analysis; assay type: functional, organism-based
[21] = tested on: Staphylococcus aureus; assay: Antibacterial activity against clinical isolate Staphylococcus aureus harbouring erm C gene assessed as inhibition of bacterial growth measured after 24 hrs by MH broth based assay; assay type: functional
[22] = tested on: Staphylococcus aureus; assay: Antibacterial activity against compound-resistant/methicillin-resistant Staphylococcus aureus assessed as inhibition of bacterial growth; assay type: functional
[23] = tested on: Staphylococcus aureus; assay: Antibacterial activity against clinical isolate Staphylococcus aureus harbouring IsaA, cfr and erm A gene assessed as inhibition of bacterial growth measured after 24 hrs by MH broth based assay; assay type: functional
[24] = tested on: Staphylococcus aureus; assay: Antibacterial activity against multi-drug resistant Staphylococcus aureus sa1 infected in BABL/C mouse assessed as reduction in bacterial load in lungs at 20 mg/kg, ip measured after 2 days; assay type: functional; conditions: time 2 day
[25] = tested on: Aerococcus viridans; assay: Antibacterial activity against clinical isolate Aerococcus viridans harbouring optrA and ErmA gene assessed as inhibition of bacterial growth measured after 24 hrs by MH broth based assay; assay type: functional
[26] = tested on: Staphylococcus aureus; assay: Antibacterial activity against multi-drug resistant Staphylococcus aureus sa1 infected in BABL/C mouse assessed as appearance of congested pulmonary capillaries at 20 mg/kg, ip; assay type: functional, organism-based
[27] = tested on: Escherichia coli; assay: Antibacterial activity against clinical isolate Escherichia coli harbouring NDM-17 gene assessed as inhibition of bacterial growth measured after 24 hrs by MH broth based assay; assay type: functional
[28] = tested on: Staphylococcus aureus; assay: Antibacterial activity against clinical isolate Staphylococcus aureus harbouring cfr and erm C gene assessed as inhibition of bacterial growth measured after 24 hrs by MH broth based assay; assay type: functional
[29] = tested on: Staphylococcus aureus; assay: Antibacterial activity against multi-drug resistant Staphylococcus aureus sa1 infected in ip dosed BABL/C mouse assessed as survival rate measured upto 7 days; assay type: functional; conditions: sa1, 168 h, time <= 7 day
[30] = tested on: Enterococcus hirae; assay: Antibacterial activity against clinical isolate Enterococcus hirae assessed as inhibition of bacterial growth measured after 24 hrs by MH broth based assay; assay type: functional
[31] = tested on: Streptococcus suis; assay: Antibacterial activity against clinical isolate Streptococcus suis harbouring IsaE and ErmA gene assessed as inhibition of bacterial growth measured after 24 hrs by MH broth based assay; assay type: functional
[32] = tested on: Staphylococcus aureus; assay: Antibacterial activity against clinical isolate Staphylococcus aureus harbouring cfr gene assessed as inhibition of bacterial growth measured after 24 hrs by MH broth based assay; assay type: functional
[33] = tested on: Staphylococcus aureus; assay: Antibacterial activity against multi-drug resistant Staphylococcus aureus sa1 infected in BABL/C mouse assessed as appearance of alveolar septa thickening at 20 to 40 mg/kg, ip; assay type: functional, organism-based; conditions: dose 20-40 mg/kg
[34] = tested on: Staphylococcus aureus; assay: Antibacterial activity against clinical isolate Staphylococcus aureus harbouring blaZ gene assessed as inhibition of bacterial growth measured after 24 hrs by MH broth based assay; assay type: functional
[35] = tested on: Enterococcus lactis; assay: Antibacterial activity against clinical isolate Enterococcus lactis assessed as inhibition of bacterial growth measured after 24 hrs by MH broth based assay; assay type: functional
[36] = tested on: Staphylococcus aureus; assay: Antibacterial activity against clinical isolate Staphylococcus aureus harbouring IsaE gene assessed as inhibition of bacterial growth measured after 24 hrs by MH broth based assay; assay type: functional
[37] = tested on: Streptococcus parasuis; assay: Antibacterial activity against clinical isolate Streptococcus parasuis harbouring optrA gene assessed as inhibition of bacterial growth measured after 24 hrs by MH broth based assay; assay type: functional
[38] = tested on: Staphylococcus aureus; assay: Antibacterial activity against tiamulin-resistant/methicillin-resistant Staphylococcus aureus assessed as inhibition of bacterial growth; assay type: functional
[39] = tested on: Streptococcus parasuis; assay: Antibacterial activity against clinical isolate Streptococcus parasuis harbouring InuD gene assessed as inhibition of bacterial growth measured after 24 hrs by MH broth based assay; assay type: functional
[40] = tested on: Staphylococcus aureus; assay: Antibacterial activity against multi-drug resistant Staphylococcus aureus sa1 infected in BABL/C mouse assessed as lymphocyte infiltration at 20 mg/kg, ip; assay type: functional, organism-based
[41] = tested on: Streptococcus hyovaginalis; assay: Antibacterial activity against clinical isolate Streptococcus hyovaginalis harbouring IsaE and optrA gene assessed as inhibition of bacterial growth measured after 24 hrs by MH broth based assay; assay type: functional
[42] = tested on: Staphylococcus aureus; assay: Antibacterial activity against clinical isolate multi-drug resistant Staphylococcus aureus sal assessed as inhibition of bacterial growth; assay type: functional
[43] = tested on: Klebsiella pneumoniae; assay: Antibacterial activity against clinical isolate Klebsiella pneumoniae harbouring blaKpc gene assessed as inhibition of bacterial growth measured after 24 hrs by MH broth based assay; assay type: functional
[44] = tested on: Streptococcus hyovaginalis; assay: Antibacterial activity against clinical isolate Streptococcus hyovaginalis harbouring ErmB and tetO gene assessed as inhibition of bacterial growth measured after 24 hrs by MH broth based assay; assay type: functional
[45] = tested on: Streptococcus pneumoniae; assay: Antibacterial activity against clinical isolate Streptococcus pneumoniae harbouring ermB gene assessed as inhibition of bacterial growth measured after 24 hrs by MH broth based assay; assay type: functional

C=C[C@]1(C)C[C@@H](OC(=O)CSc2cc[n+](CC(=O)N3CCCCC3)cc2)[C@]2(C)[C@H](C)CC[C@]3(CCC(=O)[C@H]32)[C@@H](C)[C@@H]1O.[I-]
MIC [1]: > 64 µg/mL
MIC [2]: > 64 µg/mL
MIC [3]: 2 µg/mL
MIC [4]: 64 µg/mL
MIC [5]: 64 µg/mL
MIC [6]: 64 µg/mL
MIC [7]: 0.125 µg/mL
MIC [8]: 0.25 µg/mL
MIC [9]: 64 µg/mL
MIC [10]: 0.25 µg/mL
MIC [11]: 0.125 µg/mL

C=C[C@]1(C)C[C@@H](OC(=O)CSCCN(CC)CC)[C@]2(C)[C@H](C)CC[C@]3(CCC(=O)[C@H]32)[C@@H](C)[C@@H]1O [TIAMULIN]
Activity [12]: Active
MIC [1]: 64 µg/mL (≈ 130 µM)
MIC [13]: 16 µg/mL (≈ 32.4 µM)
MIC [2]: > 64 µg/mL
Activity [14]: 1.94 log10CFU/ml
MIC [3]: 2 µg/mL (≈ 4.05 µM)
MIC [4]: 16 µg/mL (≈ 32.4 µM)
MIC [15]: 0.5 µg/mL (≈ 1.01 µM)
survival at 40 mg/kg [16]: 50%
Activity [17]: Active
MIC [5]: > 64 µg/mL
MIC [18]: 0.25 µg/mL (≈ 0.506 µM)
fold change (FC) [19]: 64
Activity [20]: Active
MIC [21]: 32 µg/mL (≈ 64.8 µM)
MIC [6]: 64 µg/mL (≈ 130 µM)
MIC [22]: 1 µg/mL (≈ 2.03 µM)
MIC [7]: 0.063 µg/mL (≈ 0.128 µM)
MIC [23]: 128 µg/mL (≈ 259 µM)
MIC [8]: 0.5 µg/mL (≈ 1.01 µM)
Activity [24]: 1.35 log10CFU/ml
MIC [25]: 32 µg/mL (≈ 64.8 µM)
Activity [26]: Active
MIC [9]: 64 µg/mL (≈ 130 µM)
MIC [27]: 64 µg/mL (≈ 130 µM)
MIC [28]: 128 µg/mL (≈ 259 µM)
ED50 [29]: 47.5 mg/kg
MIC [30]: 8 µg/mL (≈ 16.2 µM)
MIC [31]: 64 µg/mL (≈ 130 µM)
MIC [32]: 128 µg/mL (≈ 259 µM)
Activity [33]: Active
MIC [34]: 0.5 µg/mL (≈ 1.01 µM)
MIC [35]: 128 µg/mL (≈ 259 µM)
MIC [36]: 128 µg/mL (≈ 259 µM)
MIC [37]: 64 µg/mL (≈ 130 µM)
MIC [38]: 64 µg/mL (≈ 130 µM)
MIC [39]: 64 µg/mL (≈ 130 µM)
Activity [40]: Active
MIC [41]: 64 µg/mL (≈ 130 µM)
MIC [42]: 128 µg/mL (≈ 259 µM)
MIC [43]: 32 µg/mL (≈ 64.8 µM)
MIC [44]: 64 µg/mL (≈ 130 µM)
MIC [45]: 32 µg/mL (≈ 64.8 µM)
MIC [10]: 0.5 µg/mL (≈ 1.01 µM)
MIC [11]: 0.25 µg/mL (≈ 0.506 µM)

C=C[C@]1(C)C[C@@H](OC(=O)CSc2cc[n+](CCCO)cc2)[C@]2(C)[C@H](C)CC[C@]3(CCC(=O)[C@H]32)[C@@H](C)[C@@H]1O.[I-]
MIC [1]: 64 µg/mL
MIC [2]: > 64 µg/mL
MIC [3]: 0.5 µg/mL
MIC [4]: 32 µg/mL
MIC [5]: 64 µg/mL
MIC [6]: 64 µg/mL
MIC [7]: 0.25 µg/mL
MIC [8]: 1 µg/mL
MIC [9]: 64 µg/mL
MIC [10]: 1 µg/mL
MIC [11]: 0.5 µg/mL
